Results taken from patent EP0547705A1, “Pharmacologically active tricyclic benzotriazepine derivatives” (CONSEJO SUPERIOR DE INVESTIGACIONES CIENTIFICAS, priority 1991, dated 1993).

Assays:
[1] = Siegmund test (inhibition of pain); type: in vivo; conditions: 100 mg/kg p.o.
Method: (§1) The compounds of formula I are antidepressant, diuretic, antihypertensive, antihistamic, anticonvulsive, antipyretic, anti-inflammatory and/or analgesic agents. […] Exp. Biol. Med. 95, 729 (1957.)] In connection with its activity, this compound is very safe with a LD₅₀ of 1250 mg/kg p.o. in mice.

[2] = Acute toxicity LD50 p.o. in mice; conditions: mouse, in vivo, po, read-out: LD₅₀
Method: as §1

[3] = Antagonism of the effects of tetrabenazine (ptosis, akinesia, hypothermia), antidepressant activity; type: in vivo; conditions: for prevents ptosis: 25 mg/kg p.o., tetrabenazine-induced ptosis; for antagonism to hypothermia produced by tetrabenazine: dose not restated (25 mg/kg p.o. given for ptosis in same sentence)
Method: The antidepressant activity of these compounds is measured in terms of their capacity of antagonizing the effects of tetrabenazine (ptosis, akinesia and hypothermia), this action being characteristic of antidepressants such as amitriptiline or thianeptine (New Drugs: Discovery and Development. A.A. Rubin (Ed.), Marcel Dekker, Inc. New York-Basel, 203 (1978.)) For example, 2-[(5,10-dihydro-4,4-dioxo-5-methylthieno[3,4-c][2,1]benzothiazepin-10-yl)oxy]-N-methylethylamine (example 53) and 2-[(4,9-dihydro-2,9-dimethyl-10,10-dioxo-2H-pyrazolo[3,4-c][2,1]-benzothiazepin-4-yl)oxy]-1-ethylpyrrolidine (example 91) prevents ptosis at 25 mg/kg p.o., 100% and 90%, respectively, while the antagonism to hypothermia produced by tetrabenazine when administered is 85 % and 75 %, respectively.

Row | Compound | inhibition of pain [1] [%] | LD50 [2] [mg/kg] | prevents ptosis [3] [%] | antagonism to hypothermia produced by tetrabenazine [3] [%]
1 | CN1c2ccccc2C(O)c2sccc2S1(=O)=O (stereo not drawn) [example 1, 5,10-dihydro-4,4-dioxo-10-hydroxy-5-methylthieno[3,2-c][2,1]benzothiazepine] | 92 | 1250 |  | 
2 | CNCCOC1c2ccccc2N(C)S(=O)(=O)c2cscc21 (stereo not drawn) [example 53, 2-[(5,10-dihydro-4,4-dioxo-5-methylthieno[3,4-c][2,1]benzothiazepin-10-yl)oxy]-N-methylethylamine] |  |  | 100 | 85
3 | CN1c2ccccc2C(OCCN2CCCC2)c2cn(C)nc2S1(=O)=O (stereo not drawn) [example 91] |  |  | 90 | 75
